Tests used:
rat mGlu5 = rat mGlu5 (Rattus norvegicus, UniProt P31424); assay: calcium mobilization PAM assay, high-expressing rat mGlu5 HTS cell line; format: cell-based; conditions: for allosteric agonist activity: rat mGlu5 (ago-PAM); for % Glu Max (rmGlu5): rat mGlu5 cell line; for mGlu5 PAM activity: rat mGlu5, high expressing rat cell line
human mGlu5 = human mGlu5 (Homo sapiens, UniProt P41594); assay: PAM assay in lower expressing human mGlu5 cell line; format: cell-based
[1] = human plasma protein binding; format: in vitro ADME
[2] = rat plasma protein binding; format: in vitro ADME
mGlu5 MPEP site = mGlu5 MPEP site (Rattus norvegicus, UniProt P31424); assay: [3H]-methoxyPEPy radioligand displacement; format: binding
[3] = tested on: 68 GPCRs, ion channels and transporters; assay: Ricerca radioligand binding panel; conditions: at 10 μM; 68 targets
Na = assay: cardiovascular safety ion channel panel, Na; format: biochemical; conditions: read-out: IC50 Na; functional activity
Ca = assay: cardiovascular safety ion channel panel, Ca; format: biochemical; conditions: read-out: IC50 Ca; functional activity
[4] = membranes isolated from rmGlu5, up to 30 μM compound

human mGlu5, sequence (P41594 21-1212): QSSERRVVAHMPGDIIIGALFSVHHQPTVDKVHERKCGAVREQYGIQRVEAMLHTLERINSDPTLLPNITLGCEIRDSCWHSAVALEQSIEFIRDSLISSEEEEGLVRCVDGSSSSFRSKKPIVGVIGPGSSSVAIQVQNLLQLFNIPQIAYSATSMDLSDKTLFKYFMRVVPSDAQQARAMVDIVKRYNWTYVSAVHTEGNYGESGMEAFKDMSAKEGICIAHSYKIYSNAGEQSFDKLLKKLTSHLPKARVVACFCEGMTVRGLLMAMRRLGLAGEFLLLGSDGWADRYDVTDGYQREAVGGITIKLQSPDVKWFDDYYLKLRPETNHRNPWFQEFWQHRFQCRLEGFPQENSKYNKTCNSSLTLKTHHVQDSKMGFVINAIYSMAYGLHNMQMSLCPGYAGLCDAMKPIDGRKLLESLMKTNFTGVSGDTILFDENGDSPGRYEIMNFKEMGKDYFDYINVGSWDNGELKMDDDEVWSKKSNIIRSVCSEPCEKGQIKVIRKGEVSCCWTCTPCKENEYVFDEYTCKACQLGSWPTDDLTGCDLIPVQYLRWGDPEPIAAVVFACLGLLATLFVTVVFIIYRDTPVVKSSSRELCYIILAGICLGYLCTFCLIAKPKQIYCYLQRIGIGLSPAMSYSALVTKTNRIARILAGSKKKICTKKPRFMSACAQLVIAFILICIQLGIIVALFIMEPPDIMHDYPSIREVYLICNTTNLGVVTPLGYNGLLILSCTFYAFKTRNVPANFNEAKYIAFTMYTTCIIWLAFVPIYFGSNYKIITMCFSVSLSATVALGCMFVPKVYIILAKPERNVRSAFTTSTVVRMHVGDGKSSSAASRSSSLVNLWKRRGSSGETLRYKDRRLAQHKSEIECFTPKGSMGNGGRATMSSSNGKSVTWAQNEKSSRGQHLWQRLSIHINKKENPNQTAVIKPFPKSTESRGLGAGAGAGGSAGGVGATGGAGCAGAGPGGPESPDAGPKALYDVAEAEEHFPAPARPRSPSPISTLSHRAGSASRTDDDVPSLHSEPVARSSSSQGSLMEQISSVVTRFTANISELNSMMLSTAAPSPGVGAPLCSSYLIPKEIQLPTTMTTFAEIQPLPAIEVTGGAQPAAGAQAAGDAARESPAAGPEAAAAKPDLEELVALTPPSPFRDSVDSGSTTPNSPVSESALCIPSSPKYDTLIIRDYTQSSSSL
rat mGlu5, sequence (P31424 21-1203): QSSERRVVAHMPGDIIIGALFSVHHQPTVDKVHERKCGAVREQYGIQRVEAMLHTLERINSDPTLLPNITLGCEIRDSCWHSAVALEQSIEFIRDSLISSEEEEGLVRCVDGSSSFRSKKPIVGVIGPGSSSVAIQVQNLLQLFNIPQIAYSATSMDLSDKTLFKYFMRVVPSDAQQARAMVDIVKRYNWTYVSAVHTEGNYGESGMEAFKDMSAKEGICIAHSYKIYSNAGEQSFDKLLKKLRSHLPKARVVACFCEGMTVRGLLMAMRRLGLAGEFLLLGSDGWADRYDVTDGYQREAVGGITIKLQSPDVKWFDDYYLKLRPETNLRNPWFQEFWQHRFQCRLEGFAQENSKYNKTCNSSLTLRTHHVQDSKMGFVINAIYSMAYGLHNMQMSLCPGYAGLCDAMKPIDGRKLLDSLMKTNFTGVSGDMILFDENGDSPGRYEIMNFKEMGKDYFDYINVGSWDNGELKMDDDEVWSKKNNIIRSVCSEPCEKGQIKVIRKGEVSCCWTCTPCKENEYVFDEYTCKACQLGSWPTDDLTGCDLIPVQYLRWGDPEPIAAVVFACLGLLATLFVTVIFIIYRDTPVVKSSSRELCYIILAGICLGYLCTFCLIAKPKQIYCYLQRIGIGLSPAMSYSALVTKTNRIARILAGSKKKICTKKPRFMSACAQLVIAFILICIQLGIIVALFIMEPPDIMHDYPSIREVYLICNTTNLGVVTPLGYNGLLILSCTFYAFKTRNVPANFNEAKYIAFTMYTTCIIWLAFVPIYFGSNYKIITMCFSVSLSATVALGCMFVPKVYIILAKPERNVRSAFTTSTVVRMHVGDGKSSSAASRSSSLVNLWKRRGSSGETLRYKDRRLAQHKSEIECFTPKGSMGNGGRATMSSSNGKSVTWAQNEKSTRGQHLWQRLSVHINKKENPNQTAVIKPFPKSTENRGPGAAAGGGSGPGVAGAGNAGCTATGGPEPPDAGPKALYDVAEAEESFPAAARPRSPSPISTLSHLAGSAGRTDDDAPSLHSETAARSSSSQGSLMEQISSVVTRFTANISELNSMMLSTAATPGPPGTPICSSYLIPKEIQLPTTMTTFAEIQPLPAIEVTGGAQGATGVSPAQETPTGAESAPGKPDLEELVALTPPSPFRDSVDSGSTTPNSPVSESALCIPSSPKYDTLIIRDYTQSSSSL
mGlu5 MPEP site, sequence (P31424 21-1203): as above

## CS(=O)(=O)N(CC(=O)Nc1ccccc1)c1ccccc1Cl [15a]
Rat mGlu5
  allosteric agonist activity: strong allosteric agonist activity
  % Glu Max (rmGlu5): 61 % Glu Max
Human mGlu5
  % Glu Max (hmGlU5): 77 % Glu Max

## CS(=O)(=O)N(CC(=O)Nc1ccc(F)cn1)c1ccccc1Cl [15b]
Rat mGlu5
  % Glu Max (rmGlu5): 66 % Glu Max

## CS(=O)(=O)N(CC(=O)Nc1cccnc1F)c1ccccc1Cl [15c]
Rat mGlu5
  % Glu Max (rmGlu5): 64 % Glu Max
Human mGlu5
  % Glu Max (hmGlU5): 42 % Glu Max

## CS(=O)(=O)N(CC(=O)Nc1cccc(Cl)c1)c1ccccc1Cl [compound 9]
Rat mGlu5
  EC50: 98 nM
  allosteric agonist activity: strong allosteric agonist activity
  % Glu Max (rmGlu5): 74 % Glu Max
Rat mGlu5; rat mGlu5, value for 15a estimated because of agonist activity
  fold shift: 7.9 fold
Human mGlu5
  % Glu Max (hmGlU5): 63 % Glu Max

## CS(=O)(=O)N(CC(=O)NCC1CC1)c1cc(C(F)(F)F)ccc1Cl [compound 24]
[1]
  plasma protein binding: significantly reduced
[2]
  plasma protein binding: significantly reduced
mGlu5 MPEP site; in words
  displacement of [3H]-methoxyPEPy: did not displace
[3]
  inhibition in Ricerca radioligand binding panel: < 50 % inhibition
Rat mGlu5
  mGlu5 PAM activity: moderately potent
Na
  IC50: > 10 µM
Ca
  IC50: > 10 µM
Human mGlu5
  mGlu5 PAM activity: moderately potent

## O=S(=O)(c1ccc(C#Cc2cccc(F)c2)cc1)N1CCOCC1 [compound 25]
mGlu5 MPEP site; [4]
  displacement of [3H]-methoxyPEPy: no displacement
Rat mGlu5
  mGlu5 PAM activity: weak to moderately active PAMs

## O=S(=O)(c1ccc(F)cc1)N1CCC[C@H](c2nc(-c3ccc(F)cc3)no2)C1 [compound 26]
mGlu5 MPEP site; [4]
  displacement of [3H]-methoxyPEPy: no displacement
Rat mGlu5
  mGlu5 PAM activity: weak to moderately active PAMs
Human mGlu5
  mGlu5 PAM activity: weak PAM

Reference: article PMC3539767 (Bioorganic & medicinal chemistry letters, 2012)
